# Experimental data reported in ChEMBL document CHEMBL2407030, “Novel nicotinic acetylcholine receptor agonists containing carbonyl moiety as a hydrogen bond acceptor” (Bioorg Med Chem Lett, 2013).
# Active and inactive are the calls of the source. The rule behind the calls is not given here.
# Experiments:
# [1] = target: T1, Neuronal acetylcholine receptor; alpha4/beta2 (Homo sapiens, UniProt P17787+P43681); assay: Displacement of [3H]Nicotine from alpha4beta2 nACHR in human SHEP1 cell membranes after 2 hrs by liquid scintillation counting analysis
# [2] = target: Neuronal acetylcholine receptor subunit alpha-7 (Homo sapiens, UniProt P36544); assay: Displacement of [3H]Epibatidine from human alpha7 nACHR expressed in CHO cell membranes after 2 hrs by liquid scintillation counting analysis
# [3] = target: T1, Neuronal acetylcholine receptor; alpha4/beta2; assay: Agonist activity at alpha4beta2 nACHR in human SHEP1 cell membranes assessed as stimulation of calcium flux by FLIPR assay relative to control; format: cell-based
# [4] = target: T1, Neuronal acetylcholine receptor; alpha4/beta2; assay: Agonist activity at alpha4beta2 nACHR in human SHEP1 cell membranes assessed as stimulation of calcium flux by FLIPR assay; format: cell-based
# [5] = target: T2, Neuronal acetylcholine receptor; alpha3/beta4 (Homo sapiens, UniProt P30926+P32297); assay: Displacement of [3H]Epibatidine from human alpha3beta4 nACHR expressed in CHO cell membranes after 2 hrs by liquid scintillation counting analysis
# [6] = target: T2, Neuronal acetylcholine receptor; alpha3/beta4; assay: Agonist activity at human alpha3beta4 nACHR expressed in CHO cell membranes assessed as stimulation of calcium flux by FLIPR assay; format: cell-based
# [7] = target: T2, Neuronal acetylcholine receptor; alpha3/beta4; assay: Agonist activity at human alpha3beta4 nACHR expressed in CHO cell membranes assessed as stimulation of calcium flux by FLIPR assay relative to control; format: cell-based
# Rattus norvegicus [8] = assay: Cognitive enhancing effect in rat at 0.1 to 3 mg/kg, po by novel object recognition test; format: functional, organism-based
# Rattus norvegicus [9] = assay: Cognitive enhancing effect in rat at 0.003 mg/kg, po by novel object recognition test; format: functional, organism-based; design: dose 0.003 mg/kg
# Chain of Neuronal acetylcholine receptor subunit alpha-7 (P36544 whole entry): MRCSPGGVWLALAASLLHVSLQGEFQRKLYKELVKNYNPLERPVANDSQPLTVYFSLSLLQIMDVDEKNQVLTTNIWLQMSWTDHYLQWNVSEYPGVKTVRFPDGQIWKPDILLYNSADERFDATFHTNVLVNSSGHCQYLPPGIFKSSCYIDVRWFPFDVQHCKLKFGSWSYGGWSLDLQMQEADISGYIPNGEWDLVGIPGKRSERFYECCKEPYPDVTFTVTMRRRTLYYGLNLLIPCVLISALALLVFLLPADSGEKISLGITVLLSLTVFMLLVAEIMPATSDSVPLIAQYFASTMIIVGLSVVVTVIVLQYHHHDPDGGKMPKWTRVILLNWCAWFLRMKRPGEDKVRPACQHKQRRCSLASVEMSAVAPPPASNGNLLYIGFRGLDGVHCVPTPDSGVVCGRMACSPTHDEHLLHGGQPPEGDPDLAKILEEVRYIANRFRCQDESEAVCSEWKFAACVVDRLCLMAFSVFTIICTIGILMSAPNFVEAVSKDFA
# T2 sequence (P30926 whole entry): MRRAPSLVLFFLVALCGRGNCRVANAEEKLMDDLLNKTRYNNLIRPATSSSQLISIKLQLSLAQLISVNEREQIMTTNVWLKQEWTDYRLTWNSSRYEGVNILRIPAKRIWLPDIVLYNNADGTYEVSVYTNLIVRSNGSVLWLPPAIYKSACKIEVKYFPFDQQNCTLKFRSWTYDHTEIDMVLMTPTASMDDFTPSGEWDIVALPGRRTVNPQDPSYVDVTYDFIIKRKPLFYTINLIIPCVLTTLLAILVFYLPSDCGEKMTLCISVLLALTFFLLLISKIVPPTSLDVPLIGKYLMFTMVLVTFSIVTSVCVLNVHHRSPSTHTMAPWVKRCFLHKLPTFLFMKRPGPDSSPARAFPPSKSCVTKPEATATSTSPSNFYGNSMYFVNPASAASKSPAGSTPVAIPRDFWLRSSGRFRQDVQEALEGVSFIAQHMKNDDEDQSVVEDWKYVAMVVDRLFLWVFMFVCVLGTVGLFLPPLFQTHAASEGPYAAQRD
# T2 sequence (P32297 whole entry): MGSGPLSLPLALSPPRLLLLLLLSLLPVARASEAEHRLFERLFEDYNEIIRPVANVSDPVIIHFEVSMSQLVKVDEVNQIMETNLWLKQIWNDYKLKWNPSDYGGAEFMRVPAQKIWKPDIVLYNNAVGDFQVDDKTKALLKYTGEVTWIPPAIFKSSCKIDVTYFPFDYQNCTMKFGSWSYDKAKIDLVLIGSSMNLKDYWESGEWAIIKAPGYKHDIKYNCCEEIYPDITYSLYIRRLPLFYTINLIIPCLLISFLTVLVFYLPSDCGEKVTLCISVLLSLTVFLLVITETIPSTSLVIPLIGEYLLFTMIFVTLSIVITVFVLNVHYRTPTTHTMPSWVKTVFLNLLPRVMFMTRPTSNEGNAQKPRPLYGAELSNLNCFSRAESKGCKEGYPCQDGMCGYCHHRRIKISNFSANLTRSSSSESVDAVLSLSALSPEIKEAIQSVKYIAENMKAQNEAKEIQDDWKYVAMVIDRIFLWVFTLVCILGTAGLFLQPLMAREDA
# T1 sequence (P17787 whole entry): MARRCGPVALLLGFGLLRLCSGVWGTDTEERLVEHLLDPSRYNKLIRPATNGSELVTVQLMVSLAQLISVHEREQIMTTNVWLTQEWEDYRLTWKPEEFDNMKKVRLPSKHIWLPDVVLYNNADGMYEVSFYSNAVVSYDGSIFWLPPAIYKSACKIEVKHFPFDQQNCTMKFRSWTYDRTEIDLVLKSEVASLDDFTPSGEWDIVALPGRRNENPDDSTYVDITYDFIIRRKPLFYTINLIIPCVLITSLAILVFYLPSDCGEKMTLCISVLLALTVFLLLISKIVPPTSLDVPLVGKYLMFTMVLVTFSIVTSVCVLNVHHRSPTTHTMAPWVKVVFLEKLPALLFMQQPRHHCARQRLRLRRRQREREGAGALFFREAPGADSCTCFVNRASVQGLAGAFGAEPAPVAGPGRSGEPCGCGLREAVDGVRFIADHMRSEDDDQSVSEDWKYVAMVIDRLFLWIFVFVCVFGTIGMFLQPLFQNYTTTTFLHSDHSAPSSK
# T1 sequence (P43681 whole entry): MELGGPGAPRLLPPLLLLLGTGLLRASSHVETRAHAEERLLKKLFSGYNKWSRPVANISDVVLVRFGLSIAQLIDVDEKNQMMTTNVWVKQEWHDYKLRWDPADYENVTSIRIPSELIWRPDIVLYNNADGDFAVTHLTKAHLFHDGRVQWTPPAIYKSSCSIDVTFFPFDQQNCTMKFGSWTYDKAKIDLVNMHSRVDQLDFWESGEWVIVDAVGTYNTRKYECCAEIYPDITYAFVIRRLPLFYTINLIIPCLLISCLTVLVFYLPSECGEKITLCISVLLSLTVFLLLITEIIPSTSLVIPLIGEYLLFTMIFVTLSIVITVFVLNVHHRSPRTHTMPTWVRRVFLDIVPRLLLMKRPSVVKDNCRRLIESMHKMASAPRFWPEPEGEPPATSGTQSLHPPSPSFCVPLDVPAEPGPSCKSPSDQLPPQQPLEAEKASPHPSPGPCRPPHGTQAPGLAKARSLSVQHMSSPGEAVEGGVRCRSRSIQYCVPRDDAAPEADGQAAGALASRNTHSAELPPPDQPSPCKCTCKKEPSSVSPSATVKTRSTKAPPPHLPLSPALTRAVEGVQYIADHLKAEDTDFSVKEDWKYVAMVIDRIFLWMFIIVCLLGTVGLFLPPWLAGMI
smiles,measurement,setting,value
C[C@H]1C[C@@H]1C(=O)N1CC2CNCC2C1 (mixture of isomers),Ki,[1],43 nM
same,Ki,[2],100000 nM
same,Emax,[3],68%
same,EC50,[4],5600 nM
same,Ki,[5],13000 nM
same,EC50,[6],34000 nM
same,Emax,[7],26%
CC(C)NC(=O)[C@H]1C[C@@H]2CNC[C@@H](C2)C1,Ki,[1],23 nM
same,Ki,[2],11000 nM
same,Emax,[3],64%
same,EC50,[4],1900 nM
same,Ki,[5],6000 nM
same,EC50,[6],27000 nM
same,Emax,[7],25%
CCC(=O)N1CC2CNCC(C2)C1 (mixture of isomers),Ki,[1],8 nM
same,Ki,[2],1600 nM
same,Emax,[3],83%
same,EC50,[4],1900 nM
same,Ki,[5],20000 nM
same,EC50,[6],5900 nM
same,Emax,[7],130%
CC(=O)N1CC2CNCC(C2)C1 (mixture of isomers),Ki,[2],3300 nM
same,Emax,[3],34%
same,EC50,[4],9900 nM
same,Ki,[5],5500 nM
same,EC50,[6],13000 nM
same,Emax,[7],110%
O=C(c1ccco1)[C@H]1C[C@@H]2CNC[C@@H](C2)C1,Ki,[1],110 nM
same,Ki,[2],15000 nM
CN1CCC[C@H]1c1cccnc1,Emax,[3],100%
same,Emax,[7],100%
COC(=O)[C@H]1C[C@H]2CNC[C@H]2C1 (mixture of isomers),Ki,[1],8 nM
same,Ki,[2],13000 nM
same,Emax,[3],130%
same,EC50,[4],1200 nM
same,Ki,[5],400 nM
same,EC50,[6],14000 nM
same,Emax,[7],100%
O=C([C@H]1C[C@@H]1F)N1CC2CNCC2C1 (mixture of isomers),Ki,[1],30 nM
same,Ki,[2],2700 nM
same,Emax,[3],140%
same,EC50,[4],900 nM
same,Ki,[5],810 nM
same,EC50,[6],14000 nM
same,Emax,[7],90%
O=C(C1CC1)[C@H]1C[C@@H]2CNC[C@@H](C2)C1,Ki,[1],43 nM
same,Emax,[3],22%
same,EC50,[4],7100 nM
same,Ki,[5],4100 nM
same,EC50,[6],1300 nM
same,Emax,[7],10%
CCC(=O)N1CC2CNCC2C1 (mixture of isomers),Ki,[1],12 nM
same,Ki,[2],4000 nM
same,Emax,[3],120%
same,EC50,[4],1300 nM
same,Activity,Rattus norvegicus [8],Active
same,Ki,[5],2100 nM
same,EC50,[6],18000 nM
same,Emax,[7],130%
same,Activity,Rattus norvegicus [9],Active
C[C@H]1C[C@H]1C(=O)N1CC2CNCC(C2)C1 (mixture of isomers),Ki,[1],2.9 nM
same,Ki,[2],100 nM
same,Emax,[3],0.5%
same,EC50,[4],100000 nM
same,Ki,[5],100 nM
same,EC50,[6],300 nM
same,Emax,[7],140%
O=C([C@@H]1C[C@@H]1F)N1CC2CNCC2C1 (mixture of isomers),Ki,[1],17 nM
same,Ki,[2],6900 nM
same,Emax,[3],120%
same,EC50,[4],930 nM
same,Ki,[5],860 nM
same,EC50,[6],13000 nM
same,Emax,[7],88%
COC(=O)C1CC2CNCC(C2)C1 (mixture of isomers),Ki,[1],2400 nM
O=C([C@H]1C[C@@H]1F)N1CC2CNCC(C2)C1 (mixture of isomers),Ki,[1],7.3 nM
same,Ki,[2],400 nM
same,Emax,[3],84%
same,EC50,[4],2700 nM
same,Ki,[5],320 nM
same,EC50,[6],8000 nM
same,Emax,[7],210%
COC(=O)N1CC2CNCC2C1 (mixture of isomers),Ki,[1],23 nM
same,Ki,[5],14000 nM
same,EC50,[6],16000 nM
same,Emax,[7],85%
O=C([C@H]1C[C@H]1F)N1CC2CNCC(C2)C1 (mixture of isomers),Ki,[1],1.4 nM
same,Ki,[2],100 nM
same,Emax,[3],7%
same,EC50,[4],9200 nM
same,Ki,[5],150 nM
same,EC50,[6],2100 nM
same,Emax,[7],130%
C[C@H]1C[C@@H]1C(=O)N1CC2CNCC(C2)C1 (mixture of isomers),Ki,[1],28 nM
same,Ki,[2],300 nM
same,Emax,[3],21%
same,EC50,[4],10000 nM
same,Ki,[5],600 nM
same,EC50,[6],8300 nM
same,Emax,[7],89%
O=C([C@@H]1C[C@H]1F)N1CC2CNCC(C2)C1 (mixture of isomers),Ki,[1],1 nM
same,Ki,[2],10 nM
same,Emax,[3],77%
same,EC50,[4],430 nM
same,Ki,[5],36 nM
same,EC50,[6],390 nM
same,Emax,[7],130%
CCCNC(=O)[C@H]1C[C@@H]2CNC[C@@H](C2)C1,Ki,[1],6 nM
same,Ki,[2],10000 nM
same,Emax,[3],54%
same,EC50,[4],2400 nM
same,Ki,[5],4000 nM
same,EC50,[6],15000 nM
same,Emax,[7],24%
O=C(c1ccco1)[C@H]1C[C@H]2CNC[C@H]2C1 (mixture of isomers),Ki,[1],13 nM
same,Ki,[2],3400 nM
same,Emax,[3],94%
same,EC50,[4],1600 nM
same,Ki,[5],2200 nM
same,EC50,[6],11000 nM
same,Emax,[7],40%
O=C([C@@H]1C[C@@H]1F)N1CC2CNCC(C2)C1 (mixture of isomers),Ki,[1],5.2 nM
same,Ki,[2],300 nM
same,Emax,[3],11%
same,EC50,[4],400 nM
same,Ki,[5],1200 nM
same,EC50,[6],11000 nM
same,Emax,[7],90%
C[C@@H]1C[C@@H]1C(=O)N1CC2CNCC2C1 (mixture of isomers),Ki,[1],1 nM
same,Ki,[2],350 nM
same,Emax,[3],140%
same,EC50,[4],1200 nM
same,Ki,[5],280 nM
same,EC50,[6],1400 nM
same,Emax,[7],180%
C[C@@H]1C[C@H]1C(=O)N1CC2CNCC2C1 (mixture of isomers),Ki,[1],4 nM
same,Ki,[2],1900 nM
same,Emax,[3],100%
same,EC50,[4],1700 nM
same,Ki,[5],360 nM
same,EC50,[6],14000 nM
same,Emax,[7],110%
CNC(=O)[C@H]1C[C@@H]2CNC[C@@H](C2)C1,Ki,[1],1.9 nM
same,Emax,[3],65%
same,EC50,[4],2000 nM
same,EC50,[6],100000 nM
same,Emax,[7],5%
COC(=O)N1CC2CNCC(C2)C1 (mixture of isomers),Ki,[1],20 nM
same,Emax,[3],65%
same,EC50,[4],5200 nM
C[C@H]1C[C@H]1C(=O)N1CC2CNCC2C1 (mixture of isomers),Ki,[1],18 nM
same,Ki,[2],4500 nM
same,Emax,[3],100%
same,EC50,[4],19000 nM
same,Ki,[5],2000 nM
same,EC50,[6],10000 nM
same,Emax,[7],110%
O=C([C@H]1C[C@H]1F)N1CC2CNCC2C1 (mixture of isomers),Ki,[1],5 nM
same,Ki,[2],1400 nM
same,Emax,[3],130%
same,EC50,[4],1000 nM
same,Ki,[5],380 nM
same,EC50,[6],24000 nM
same,Emax,[7],140%
CNC(=O)[C@H]1C[C@H]2CNC[C@H]2C1 (mixture of isomers),Ki,[1],180 nM
same,Ki,[2],27000 nM
C[C@@H]1C[C@@H]1C(=O)N1CC2CNCC(C2)C1 (mixture of isomers),Ki,[1],0.2 nM
same,Ki,[2],5 nM
same,Emax,[3],5%
same,EC50,[4],1900 nM
same,Ki,[5],10 nM
same,EC50,[6],80 nM
same,Emax,[7],160%
O=C([C@@H]1C[C@H]1F)N1CC2CNCC2C1 (mixture of isomers),Ki,[1],9 nM
same,Ki,[2],990 nM
same,Emax,[3],130%
same,EC50,[4],190 nM
same,Ki,[5],420 nM
same,EC50,[6],8400 nM
same,Emax,[7],150%
CC(=O)N1CC2CNCC2C1 (mixture of isomers),Ki,[1],38 nM
same,Emax,[3],110%
same,EC50,[4],2600 nM
same,Ki,[5],14000 nM
same,EC50,[6],23000 nM
same,Emax,[7],36%
C[C@@H]1C[C@H]1C(=O)N1CC2CNCC(C2)C1 (mixture of isomers),Ki,[1],1 nM
same,Ki,[2],30 nM
same,Emax,[3],23%
same,EC50,[4],12000 nM
same,Ki,[5],100 nM
same,EC50,[6],1600 nM
same,Emax,[7],120%
O=C(C1CC1)[C@H]1C[C@H]2CNC[C@H]2C1 (mixture of isomers),Ki,[1],0.5 nM
same,Ki,[2],140 nM
same,Emax,[3],120%
same,EC50,[4],18 nM
same,Ki,[5],70 nM
same,EC50,[6],930 nM
same,Emax,[7],130%
